In patent US7049340B1, “Neuroprotective and retinoprotective ophthalmologic drugs” (priority 1999, dated 2006):
pKi: −log10 of the molar value. Like-named read-outs stand apart in the source and are kept apart here.

What was measured:
[1] = tested on: treated patients; assay: Visual function in treated patients, enalaprilat used instead of ramipril; format: in vivo, human; settings: comparison enalaprilat vs ramiprilat
Excerpt: It should be remembered that the physico-chemical indications described above originate from the article by Vasmant et al., loc. cit.

[2] = biological target: T1, rabbit converting enzyme (Oryctolagus cuniculus, UniProt P12822); assay: In vitro inhibition of rabbit converting enzyme (Bünning and Shapiro methods); format: biochemical
T1 construct: host or cells: rabbit lung (only from the title of the cited Shapiro thesis)
T1 sequence (P12822 34-1310): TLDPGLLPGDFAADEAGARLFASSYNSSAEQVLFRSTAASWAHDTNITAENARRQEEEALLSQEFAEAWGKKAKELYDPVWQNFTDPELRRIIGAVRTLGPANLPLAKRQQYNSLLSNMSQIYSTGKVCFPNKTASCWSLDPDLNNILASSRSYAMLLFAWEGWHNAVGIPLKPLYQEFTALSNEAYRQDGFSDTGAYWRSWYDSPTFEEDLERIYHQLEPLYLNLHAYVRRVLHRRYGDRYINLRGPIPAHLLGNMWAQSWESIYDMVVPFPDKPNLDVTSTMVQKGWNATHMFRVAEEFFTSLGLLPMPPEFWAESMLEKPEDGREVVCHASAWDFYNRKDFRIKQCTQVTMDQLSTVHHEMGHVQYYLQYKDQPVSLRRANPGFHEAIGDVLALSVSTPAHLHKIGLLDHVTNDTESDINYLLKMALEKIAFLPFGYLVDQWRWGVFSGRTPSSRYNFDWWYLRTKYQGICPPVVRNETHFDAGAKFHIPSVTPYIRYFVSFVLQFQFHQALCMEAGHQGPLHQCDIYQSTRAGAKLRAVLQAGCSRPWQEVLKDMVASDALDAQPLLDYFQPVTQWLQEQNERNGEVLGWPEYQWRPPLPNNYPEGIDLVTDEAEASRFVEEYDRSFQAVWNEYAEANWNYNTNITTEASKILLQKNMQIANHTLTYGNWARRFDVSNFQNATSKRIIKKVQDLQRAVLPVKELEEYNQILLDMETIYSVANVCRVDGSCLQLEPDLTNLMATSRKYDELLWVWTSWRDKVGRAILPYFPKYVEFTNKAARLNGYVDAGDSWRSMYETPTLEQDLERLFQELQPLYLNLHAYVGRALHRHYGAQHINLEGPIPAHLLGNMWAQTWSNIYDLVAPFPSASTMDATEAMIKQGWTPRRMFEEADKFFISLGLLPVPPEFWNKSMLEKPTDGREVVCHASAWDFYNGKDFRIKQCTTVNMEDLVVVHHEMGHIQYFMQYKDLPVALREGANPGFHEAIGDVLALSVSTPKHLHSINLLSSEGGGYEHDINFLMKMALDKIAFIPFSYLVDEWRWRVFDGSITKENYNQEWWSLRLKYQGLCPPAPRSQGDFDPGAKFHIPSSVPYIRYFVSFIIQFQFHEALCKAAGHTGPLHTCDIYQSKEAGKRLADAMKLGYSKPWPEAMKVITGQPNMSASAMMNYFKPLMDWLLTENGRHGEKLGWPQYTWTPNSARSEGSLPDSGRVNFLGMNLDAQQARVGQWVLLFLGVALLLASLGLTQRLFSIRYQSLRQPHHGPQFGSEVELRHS
Excerpt: Doubtless, such drugs intervene in the CEI action mechanism, in that they act by preventing the transformation of angiotensin I to angiotensin II (vasoconstrictor) and the degradation of bradykinins (vasodilators). These CEIs thus cause vasodilation, which is exerted on arteries and on veins. Thus, they are mixed vasodilators. It should be remembered that the mechanism for the formation of the bond that can be formed between the inhibitor and the enzyme normally occurs in two phases, the first consisting of the formation of an inhibitor-enzyme complex by a competitive bond, which involves a reaction governed by a constant K1, and the second, consisting of a slow isomerisation of the inhibitor-enzyme complex, itself also governed by a reversible rate constant for this reaction, k4.
Comparison with captopril and enalaprilat” in Drug Research 1984; 34:1406–1410, and the doctoral thesis by Shapiro R. (Ph.D. Thesis, Harvard University Cambridge, Mass., 1983 “Activation and inactivation of rabbit pulmonary angiotensin converting enzyme”.

[3] = tested on: healthy subject; assay: General arterial pressure at doses that improve field of vision; format: in vivo, human; settings: in vivo
Excerpt: Effective doses for producing effects in the ophtalmologic field are desirably lower than doses that would induce general arterial hypotension in a subject with normal pressure. Clearly, the doses that can be used can be higher in subjects with hypertension, although this is not necessary, since the desired effect is that obtained in the ophtalmologic field.

[4] = biological target: T1, rabbit converting enzyme; settings: cited from earlier work

For `C[C@H](N[C@@H](CCc1ccccc1)C(=O)O)C(=O)N1[C@H](C(=O)O)C[C@@H]2CCC[C@@H]21` [ramiprilat], which “improvement in visual function in treated patients” value [1] is on record?
The value was “incomparably better”.

What about the “stability of enzyme complex relative to enalaprilat” value ([2]; from k4) of the same compound?
Its value is “six times more stable”.

What about the “Ki relative to enalaprilat” value ([2]; printed as 'higher than with enalaprilat') of the same compound?
The value was 7 times.

What about the “effect on arterial pressure of doses that improve field of vision” value [3] of the same compound?
The value was “do not cause arterial hypertension”.

And the pKi ([4]; unit inferred, read-out: constant Ki)?
Its pKi is 11.15.

And the “constant k4” value ([4]; unit not given)?
Its value is 1.8×10^−5.

For `C[C@H](N[C@@H](CCc1ccccc1)C(=O)O)C(=O)N1CCC[C@H]1C(=O)O` [enalaprilat], which “improvement in visual function in treated patients” value [1] is on record?
The value was “moderate improvement”.

What about the “constant k4 for the reversible isomerisation of the enzyme-inhibitor complex” value ([4]; 50 mM/l Hepes, 300 mmol/l NaCl, 1 micromol/l ZnCl2, pH 7.5) of the same compound?
The value was 1.1×10^−4 S1.

And the pKi ([4]; in vitro, 50 mM/l Hepes, 300 mmol/l NaCl, 1 micromol/l ZnCl2, pH 7.5, read-out: equilibrium inhibition constant K)?
The pKi was 10.30.
